Measured values taken from patent US10844027B2, “Carboxylic diarylthiazepineamines as mu-opioid receptor agonists” (THE TRUSTEES OF COLUMBIA UNIVERSITY IN THE CITY OF NEW YORK, priority 2015, dated 2020).
Counter-ions that a name gives are not always drawn.

What was measured:
[1] = target: T1, human mu-opioid receptor (MOR) (Homo sapiens, UniProt P35372); experiment: BRET assay measuring G protein activation, agonist activity at human MOR; type: cell-based
T1 construct: expressed in transfected cells; host or cells: HEK-293T
Experimental: After 24 hours the media was changed, and the experiment was performed 24 hours later (48 hours after transfection).
Transfected cells were dissociated and re-suspended in phosphate-buffered saline (PBS). […] The microplate was centrifuged and the cells were re-suspended in PBS. Then 5 μM of the luciferase substrate coelenterazine H was added to each well for 5 minutes. Following coelenterazine H addition, ligands were added and the BRET signal was measured at 5 minutes on a PHERAstar FS plate reader. Quantification of the BRET signal required calculating the ratio of the light emitted by the energy acceptor, mVenus (510-540 nm), over the light emitted by the energy donor, RLuc8 (485 nm). […] Dose response curves were fit using a three-parameter logistics equation in GraphPad Prism 6.

[2] = target: T2, human delta-opioid receptor (DOR) (Homo sapiens, UniProt P41143); experiment: BRET assay measuring G protein activation, agonist activity at human DOR; type: cell-based
T2 construct: expressed in transfected cells; host or cells: HEK-293T
Experimental: The diarylthiazepinamine esters (6) and carboxylic acids (7) were tested for agonist activity at the human mu-opioid receptor (MOR) and delta-opioid receptor (DOR) using bioluminescence resonance energy transfer (BRET) assays measuring G protein activation as previously described (Table 1) (Rives, M.-L. et al. 2012; Negri, A. et al. 2013).
Human MOR or DOR cDNA was transfected alongside GαoB with RLuc8 inserted at position 91 (GαoB—RLuc8), Gβ1 (β1), and Gγ2 fused to the full-length mVenus at its N terminus (mVenus-γ2) into HEK-293T cells (5×10^6 cells/plate) in 10-cm dishes using PEI (Polysciences Inc.; Warrington, Pa.) in a 1:1 ratio diluted in Opti-MEM (Life Technologies Corp.; Grand Island, N.Y.) to assay for G protein activation as described previously (Rives, M.-L. et al. 2012; Negri, A. et al. 2013). Cells were maintained in Dulbecco's Modified Eagle Medium (high glucose #11965; Life Technologies) supplemented with 10% FBS (Premium Select, Atlanta Biologicals; Atlanta, Ga.) and 100 U/mL penicillin and 100 μg/mL streptomycin (#15140, Life Technologies). After 24 hours the media was changed, and the experiment was performed 24 hours later (48 hours after transfection).
Transfected cells were dissociated and re-suspended in phosphate-buffered saline (PBS). Approximately 200,000 cells/well were added to a black-framed, white well 96-well plate (#60050; Perkin Elmer; Waltham, Mass.). The microplate was centrifuged and the cells were re-suspended in PBS. Then 5 μM of the luciferase substrate coelenterazine H was added to each well for 5 minutes. Following coelenterazine H addition, ligands were added and the BRET signal was measured at 5 minutes on a PHERAstar FS plate reader. Quantification of the BRET signal required calculating the ratio of the light emitted by the energy acceptor, mVenus (510-540 nm), over the light emitted by the energy donor, RLuc8 (485 nm). […] Dose response curves were fit using a three-parameter logistics equation in GraphPad Prism 6.

[3] = Brain pharmacokinetics of tianeptine and its 5-carbon metabolite (7i) in mice
Experimental: Brain samples were collected from three mice at 0.08, 0.25, 0.5, 1, 2, 4, 8 and 24 h, homogenized using ice-cold phosphate buffer saline (pH 7.4), and stored below −70° C. until analysis. Total homogenate volume was three times the tissue weight. All samples were processed for analysis by protein precipitation using acetonitrile (ACN) and analyzed with a fit-for-purpose LC/MS/MS method (LLOQ—1.01 ng/mL in brain). Pharmacokinetic parameters were calculated using the non-compartmental analysis tool of Phoenix WinNonlin® (Version 6.3).

[4] = brain, C57BL/6 mice, single injection (30 mg/kg, i.p.) of tianeptine
[5] = brain, mice, after tianeptine 30 mg/kg i.p.
[6] = male, C57BL/6, mouse, in vivo, ip, 30 mg/kg

T2 sequence (P41143 whole entry): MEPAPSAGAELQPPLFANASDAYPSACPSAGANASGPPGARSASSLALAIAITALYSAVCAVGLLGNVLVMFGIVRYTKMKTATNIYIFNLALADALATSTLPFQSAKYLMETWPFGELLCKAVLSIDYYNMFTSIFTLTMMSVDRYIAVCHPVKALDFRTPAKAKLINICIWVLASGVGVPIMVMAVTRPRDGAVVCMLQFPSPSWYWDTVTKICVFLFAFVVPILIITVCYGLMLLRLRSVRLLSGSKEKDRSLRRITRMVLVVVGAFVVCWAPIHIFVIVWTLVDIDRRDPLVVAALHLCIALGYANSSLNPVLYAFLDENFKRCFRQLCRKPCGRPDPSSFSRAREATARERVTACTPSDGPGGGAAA
T1 sequence (P35372 whole entry): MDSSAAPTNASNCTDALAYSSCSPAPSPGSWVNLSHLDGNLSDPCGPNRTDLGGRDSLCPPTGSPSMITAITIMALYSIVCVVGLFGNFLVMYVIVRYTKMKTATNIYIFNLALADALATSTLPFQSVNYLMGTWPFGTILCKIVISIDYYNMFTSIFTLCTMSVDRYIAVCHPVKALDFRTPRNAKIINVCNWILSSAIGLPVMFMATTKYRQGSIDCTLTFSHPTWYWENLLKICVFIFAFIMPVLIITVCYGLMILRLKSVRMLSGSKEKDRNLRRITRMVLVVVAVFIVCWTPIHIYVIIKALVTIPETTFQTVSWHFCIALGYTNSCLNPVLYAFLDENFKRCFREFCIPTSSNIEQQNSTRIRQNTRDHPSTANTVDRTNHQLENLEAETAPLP

| SMILES | EC50 [1] [µM] | EC50 [2] [µM] | also measured |
| --- | --- | --- | --- |
| CCOC(=O)CCCNC1c2ccccc2N(C)S(=O)(=O)c2cc(Br)ccc21 (stereo not shown) [Compound 6c, Ethyl 4-((3-bromo-6-methyl-5,5-dioxido-6,11-dihydrodibenzo[c,f][1,2]thiazepin-11-yl)amino)butanoate] | 0.27 ± 0.038 | > 10 | – |
| CN1c2ccccc2C(NCCC(=O)O)c2ccc(Br)cc2S1(=O)=O (stereo not shown) [Compound 7a, 3-((3-Bromo-6-methyl-5,5-dioxido-6,1-dihydrodibenzo[c,f][1,2]thiazepin-11-yl)amino)propanoic acid hydrochloride salt] | 4.7 ± 1.4 | > 10 | – |
| CCOC(=O)CCNC1c2ccccc2N(C)S(=O)(=O)c2cc(I)ccc21 (stereo not shown) [Compound 6b, Ethyl 3-((3-iodo-6-methyl-5,5-dioxido-6,11-dihydrodibenzo[c,f][1,2]thiazepin-11-yl)amino)propanoate] | 1.6 ± 0.2 | > 10 | – |
| CN1c2ccccc2C(NCCCCCC(=O)O)c2ccc(I)cc2S1(=O)=O (stereo not shown) [Compound 7g, 6-((3-Iodo-6-methyl-5,5-dioxido-6,11-dihydrodibenzo[c,f][1,2]thiazepin-11-yl)amino)hexanoic acid hydrochloride salt] | 0.0243 ± 0.0045 | 5.1 ± 1.4 | – |
| CCOC(=O)CCCCCNC1c2ccccc2N(C)S(=O)(=O)c2cc(Br)ccc21 (stereo not shown) [Compound 6f, Ethyl 6-((3-bromo-6-methyl-5,5-dioxido-6,11-dihydrodibenzo[c,f][1,2]thiazepin-11-yl)amino)hexanoate] | 0.0908 ± 0.0314 | 11.7 ± 0.06 | – |
| CN1c2ccccc2C(NCCCCC(=O)O)c2ccc(Br)cc2S1(=O)=O (stereo not shown) [Compound 7d, 5-((3-Bromo-6-methyl-5,5-dioxido-6,11-dihydrodibenzo[c,f][1,2]thiazepin-11-yl)amino)pentanoic acid hydrochloride salt] | 0.405 | > 10 | – |
| CCOC(=O)CCCCCNC1c2ccccc2N(C)S(=O)(=O)c2cc(I)ccc21 (stereo not shown) [Compound 6g, Ethyl 6-((3-iodo-6-methyl-5,5-dioxido-6,11l-dihydrodibenzo[c,f][1,2]thiazepin-11-yl)amino)hexanoate] | 0.0485 ± 0.0049 | 8.5 ± 6.3 | – |
| CCOC(=O)CCNC1c2ccccc2N(C)S(=O)(=O)c2cc(Br)ccc21 (stereo not shown) [Compound 6a, Ethyl 3-((3-bromo-6-methyl-5,5-dioxido-6,11l-dihydrodibenzo[c,f][1,2]thiazepin-11-yl)amino)propanoate] | 5.9 ± 1 | > 10 | – |
| CN1c2ccccc2C(NCCCCC(=O)O)c2ccc(I)cc2S1(=O)=O (stereo not shown) [Compound 7e, 5-((3-Iodo-6-methyl-5,5-dioxido-6,11-dihydrodibenzo[c,f][1,2]thiazepin-11-yl)amino)pentanoic acid hydrochloride salt] | 0.0183 ± 0.0002 | 8.9 ± 0.007 | – |
| CCOC(=O)CCCCNC1c2ccccc2N(C)S(=O)(=O)c2cc(Br)ccc21 (stereo not shown) [Compound 6d, Ethyl 5-((3-bromo-6-methyl-5,5-dioxido-6,11-dihydrodibenzo[c,f][1,2]thiazepin-11-yl)amino)pentanoate] | 0.12 | – | – |
| CCOC(=O)CCCCNC1c2ccccc2N(C)S(=O)(=O)c2cc(Cl)ccc21 (stereo not shown) [Compound 6i, Ethyl 5-((3-chloro-6-methyl-5,5-dioxido-6,11-dihydrodibenzo[c,f][1,2]thiazepin-11-yl)amino)pentanoate] | 0.533 ± 0.267 | > 10 | – |
| CN1c2ccccc2C(NCCCCCCC(=O)O)c2ccc(Cl)cc2S1(=O)=O (stereo not shown) [Tianeptine, tianeptine, reference compound] | – | 37.4 ± 11.2 | – |
| CN1c2ccccc2C(NCCCCC(=O)O)c2ccc(Cl)cc2S1(=O)=O.Cl (stereo not shown) [Compound 7i, 5-((3-Chloro-6-methyl-5,5-dioxido-6,11-dihydrodibenzo[c,f][1,2]thiazepin-11-yl)amino)pentanoic acid hydrochloride salt] | 0.361 ± 0.0929 | > 10 | AUClast [3, 4]: 5963 ng·h/g; CL [3, 4]: 78 mL/min/kg; brain exposure (as measured by AUC) compared to the parent compound (tianeptine) [3, 5]: greater; half-life compared to the parent compound (tianeptine) [3, 5]: significantly longer; Cmax [3, 6]: 2860 ng/g; Tmax [3, 6]: 0.5 h; half-life [3, 6]: 2.33 h |
| CCOC(=O)CCCCNC1c2ccccc2N(C)S(=O)(=O)c2cc(I)ccc21 (stereo not shown) [Compound 6e, Ethyl 5-((3-iodo-6-methyl-5,5-dioxido-6,11-dihydrodibenzo[c,f][1,2]thiazepin-11-yl)amino)pentanoate] | 0.0282 ± 0.0032 | 6.8 ± 0.03 | – |
| CN1c2ccccc2C(NCCCCCC(=O)O)c2ccc(Br)cc2S1(=O)=O (stereo not shown) [Compound 7f, 6-((3-Bromo-6-methyl-5,5-dioxido-6,11-dihydrodibenzo[c,f][1,2]thiazepin-11-yl)amino)hexanoic acid hydrochloride salt] | 0.133 ± 0.0132 | 23.7 ± 1.5 | – |
| CN1c2ccccc2C(NCCCC(=O)O)c2ccc(Br)cc2S1(=O)=O (stereo not shown) [Compound 7c, 4-((3-Bromo-6-methyl-5,5-dioxido-6,11-dihydrodibenzo[c,f][1,2]thiazepin-11-yl)amino)butanoic acid hydrochloride salt] | 2 ± 0.3 | > 10 | – |
| CN1c2ccccc2C(NCCC(=O)O)c2ccc(Cl)cc2S1(=O)=O (stereo not shown) [Compound 7h, 3-((3-Chloro-6-methyl-5,5-dioxido-6,11-dihydrodibenzo[c,f][1,2]thiazepin-11-yl)amino)propanoic acid hydrochloride salt] | 24.9 ± 12.6 | > 10 | – |
| CCOC(=O)CCCCCNC1c2ccccc2N(C)S(=O)(=O)c2cc(Cl)ccc21 (stereo not shown) [Compound 6j, Ethyl 6-((3-chloro-6-methyl-5,5-dioxido-6,11-dihydrodibenzo[c,f][1,2]thiazepin-11-yl)amino)hexanoate] | 0.318 ± 0.162 | 13.9 ± 4.8 | – |
| CN1c2ccccc2C(NCCC(=O)O)c2ccc(I)cc2S1(=O)=O (stereo not shown) [Compound 7b, 3-((3-Iodo-6-methyl-5,5-dioxido-6,11-dihydrodibenzo[c,f][1,2]thiazepin-11-yl)amino) propanoic acid hydrochloride salt] | 1.2 ± 0.3 | > 10 | – |
